# According to US20190055576A1, “USE OF HERBICIDE-TOLERANT PROTEIN” (BEIJING DABEINONG TECHNOLOGY GROUP CO., LTD., priority 2016, published 2019):
# How the values were obtained:
# [1] = tested on: wild-type maize plants (CK2); assay: Sulfometuron-methyl tolerance of wild-type maize plants, damage degree; assay type: in vivo; conditions: 120 g ai/ha
# From the text: (§1) The herbicide tolerance effects of Zm cytoplasmic ALT-1-02 maize plants, Zm chloroplastic ALT-1-02 maize plants, Zm cytoplasmic ALT-2-02 maize plants, Zm chloroplastic ALT-2-02 maize plants, Zm cytoplasmic ALT-3-02 maize plants, Zm chloroplastic ALT-3-02 maize plants and wild-type maize plants on Sulfometuron-methyl were detected (at V3-V4 stage), respectively.
# (§2) Zm cytoplasmic ALT-1-02 maize plants, Zm chloroplastic ALT-1-02 maize plants, Zm cytoplasmic ALT-2-02 maize plants, Zm chloroplastic ALT-2-02 maize plants, Zm cytoplasmic ALT-3-02 maize plants, Zm chloroplastic ALT-3-02 maize plants and wild-type maize plants were respectively taken and sprayed with Sulfometuron-methyl (120 g ai/ha, 4-fold field concentration) and a blank solvent (water). The damage degree caused by the herbicide was measured for each plant according to the plant growth status 3 days after spraying (3 DAT), 7 days after spraying (7 DAT), 14 days after spraying (14 DAT) and 21 days after spraying (21 DAT), respectively: considering a growth status equivalent to that of the untreated plants as having a damage degree of 0%; considering conditions of leaves being partially chlorotic and yellow but substantially not affecting the plant normal growth as having a damage degree of 50%; and considering the whole plant being purple and dying as having a damage degree of 100%. There were 2 strains in Zm cytoplasmic ALT-1-02 maize plants in total (S13 and S14), 2 strains in Zm chloroplastic ALT-1-02 maize plants in total (S15 and S16), 2 strains in Zm cytoplasmic ALT-2-02 maize plants in total (S17 and S18), 2 strains in Zm chloroplastic ALT-2-02 maize plants in total (S19 and S20), 2 strains in Zm cytoplasmic ALT-3-02 maize plants in total (S21 and S22), 2 strains in Zm chloroplastic ALT-3-02 maize plants in total (S23 and S24), and 1 strain in wild-type maize plants (CK2) in total; and 10-15 plants were selected from each strain and tested.
# [2] = tested on: transgenic maize plants (Zm cytoplasmic/chloroplastic ALT-1-02, ALT-2-02, ALT-3-02); assay: Sulfometuron-methyl tolerance of transgenic maize plants, damage degree by plant growth status; assay type: in vivo; conditions: 120 g ai/ha; for Average damage % 3DAT / Average damage % 7DAT / Average damage % 14DAT / Average damage % 21DAT: 4-fold field concentration; for Average damage % 3DAT: 3 days after spraying; for Average damage % 7DAT: 7 days after spraying; for Average damage % 14DAT: 14 days after spraying; for Average damage % 21DAT: 21 days after spraying
# From the text: as §1, §2
# [3] = strain S13 (Zm cytoplasmic ALT-1-02 maize)
# [4] = strain S14 (Zm cytoplasmic ALT-1-02 maize)
# [5] = strain S15 (Zm chloroplastic ALT-1-02 maize)
# [6] = strain S16 (Zm chloroplastic ALT-1-02 maize)
# [7] = strain S17 (Zm cytoplasmic ALT-2-02 maize)
# [8] = strain S18 (Zm cytoplasmic ALT-2-02 maize)
# [9] = strain S19 (Zm chloroplastic ALT-2-02 maize)
# [10] = strain S20 (Zm chloroplastic ALT-2-02 maize)
# [11] = strain S21 (Zm cytoplasmic ALT-3-02 maize)
# [12] = strain S22 (Zm cytoplasmic ALT-3-02 maize)
# [13] = strain S23 (Zm chloroplastic ALT-3-02 maize)
# [14] = strain S24 (Zm chloroplastic ALT-3-02 maize)
compound,measurement,setting,value
"COC(=O)c1ccccc1S(=O)(=O)NC(=O)Nc1nc(C)cc(C)n1 [Sulfometuron-methyl, 2-(4,6-dimethylpyrimidine-2-amino-formamido-sulfonyl) methyl benzoate]",Average damage % 3DAT,"[1]; CK2 (wild-type maize), 4-fold field concentration, 3 days after spraying",44%
same,Average damage % 7DAT,"[1]; CK2 (wild-type maize), 4-fold field concentration, 7 days after spraying",87%
same,Average damage % 14DAT,"[1]; CK2 (wild-type maize), 4-fold field concentration, 14 days after spraying",100%
same,Average damage % 21DAT,"[1]; CK2 (wild-type maize), 4-fold field concentration, 21 days after spraying",100%
same,herbicide tolerance of wild-type plants,[1]; wild-type maize plants,not tolerant
same,Average damage % 3DAT,[2]; [3],6%
same,Average damage % 7DAT,[2]; [3],0%
same,Average damage % 14DAT,[2]; [3],0%
same,Average damage % 21DAT,[2]; [3],0%
same,Average damage % 3DAT,[2]; [4],7%
same,Average damage % 7DAT,[2]; [4],0%
same,Average damage % 14DAT,[2]; [4],0%
same,Average damage % 21DAT,[2]; [4],0%
same,Average damage % 3DAT,[2]; [5],0%
same,Average damage % 7DAT,[2]; [5],0%
same,Average damage % 14DAT,[2]; [5],0%
same,Average damage % 21DAT,[2]; [5],0%
same,Average damage % 3DAT,[2]; [6],0%
same,Average damage % 7DAT,[2]; [6],0%
same,Average damage % 14DAT,[2]; [6],0%
same,Average damage % 21DAT,[2]; [6],0%
same,Average damage % 3DAT,[2]; [7],6%
same,Average damage % 7DAT,[2]; [7],0%
same,Average damage % 14DAT,[2]; [7],0%
same,Average damage % 21DAT,[2]; [7],0%
same,Average damage % 3DAT,[2]; [8],5%
same,Average damage % 7DAT,[2]; [8],0%
same,Average damage % 14DAT,[2]; [8],0%
same,Average damage % 21DAT,[2]; [8],0%
same,Average damage % 3DAT,[2]; [9],0%
same,Average damage % 7DAT,[2]; [9],0%
same,Average damage % 14DAT,[2]; [9],0%
same,Average damage % 21DAT,[2]; [9],0%
same,Average damage % 3DAT,[2]; [10],0%
same,Average damage % 7DAT,[2]; [10],0%
same,Average damage % 14DAT,[2]; [10],0%
same,Average damage % 21DAT,[2]; [10],0%
same,Average damage % 3DAT,[2]; [11],5%
same,Average damage % 7DAT,[2]; [11],0%
same,Average damage % 14DAT,[2]; [11],0%
same,Average damage % 21DAT,[2]; [11],0%
same,Average damage % 3DAT,[2]; [12],5%
same,Average damage % 7DAT,[2]; [12],0%
same,Average damage % 14DAT,[2]; [12],0%
same,Average damage % 21DAT,[2]; [12],0%
same,Average damage % 3DAT,[2]; [13],0%
same,Average damage % 7DAT,[2]; [13],0%
same,Average damage % 14DAT,[2]; [13],0%
same,Average damage % 21DAT,[2]; [13],0%
same,Average damage % 3DAT,[2]; [14],0%
same,Average damage % 7DAT,[2]; [14],0%
same,Average damage % 14DAT,[2]; [14],0%
same,Average damage % 21DAT,[2]; [14],0%
same,"herbicide tolerance conferred by the thifensulfuron hydrolase (ALT-1, ALT-2 and ALT-3)",[2]; transgenic maize plants,conferred a high level of Sulfometuron-methyl herbicide tolerance
